The values that follow come from patent US20260234107A1, “TRYPTAMINES AND METHODS OF TREATING MOOD DISORDERS” (priority 2022, published 2026).

Data set [1] in a line: Plasma pharmacokinetics in mice after subcutaneous administration. In kind it is in vivo, male C57BL/6 mice. To be noted: plasma, male C57BL/6 mice, SC 10 mg/kg. An excerpt: Animals. […] Four mice were housed in each cage. […] All animals were provided laboratory rodent diet. […] Animals were randomly assigned to treatment groups.
In data set [2] the target is T1, 5-HT2A (Homo sapiens, UniProt P28223). Description: 5-HT2A receptor radioligand binding ([3H]ketanserin). The procedure:
The binding affinities of disclosed compounds at the ketanserin binding site of the 5-HT2A receptor were determined in radioligand binding experiments.
Method. Affinity of the test compounds for the 5-HT2A receptor was determined in radioligand binding experiments with [^3H]ketanserin by WuXi AppTec (Hong Kong) Limited, using methods adapted from the literature and under conditions described in Table 4.

The target in the next data set is T2, 5-HT2C receptor (Homo sapiens, UniProt P28335).
T2 sequence (P28335 33-458): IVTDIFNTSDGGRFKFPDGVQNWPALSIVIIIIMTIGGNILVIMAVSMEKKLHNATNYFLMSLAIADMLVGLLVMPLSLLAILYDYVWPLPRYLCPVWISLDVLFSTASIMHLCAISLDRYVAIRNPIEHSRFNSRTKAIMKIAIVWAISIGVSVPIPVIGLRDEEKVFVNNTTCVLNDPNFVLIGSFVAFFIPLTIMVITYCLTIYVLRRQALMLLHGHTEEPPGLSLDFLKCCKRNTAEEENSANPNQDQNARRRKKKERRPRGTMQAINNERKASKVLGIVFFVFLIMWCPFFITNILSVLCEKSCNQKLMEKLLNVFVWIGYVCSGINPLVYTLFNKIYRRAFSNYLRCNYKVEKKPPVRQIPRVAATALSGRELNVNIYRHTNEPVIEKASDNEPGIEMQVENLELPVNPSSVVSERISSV
As to the kind of experiment: cell-based. In kind it is cell-based. To be noted: Ca2+ flux. Background: Calcium flux is commonly read through the fluorescence of an indicator in the cells.

Data set [3] has as its target T1, 5-HT2A. As to the kind of experiment: FLIPR Ca2+ flux agonist assay at 5-HT2A. It is filed as cell-based. The arrangement: host or cells: HEK293. To be noted: for 5-HT2A % Act @ Max Dose: Ca2+ flux, HEK293, max dose.
The target in another data set is T3, 5-HT2B (Homo sapiens, UniProt P41595).
T3 construct: host or cells: HEK293
Description: FLIPR Ca2+ flux agonist assay at 5-HT2B. To be noted: for 5-HT2B % Act @ Max Dose: Ca2+ flux, HEK293, max dose. It is filed as cell-based.

The AUC(0-t) is exposure summed from dosing to a finite time, without extrapolation to infinity. Higher therefore signals more exposure. In general, Cmax refers to the peak of the concentration-time curve. Usually Tmax stands for the time from dosing to the highest level. Broadly, the Ki is the dissociation constant of the complex between target and ligand, obtained from inhibition or displacement. High values mean a looser hold on the target, low ones a stronger hold on the target. The EC50 is the concentration at which the effect is half-maximal.

Molecules are shown by their SMILES.

T1 sequence (P28223 whole entry): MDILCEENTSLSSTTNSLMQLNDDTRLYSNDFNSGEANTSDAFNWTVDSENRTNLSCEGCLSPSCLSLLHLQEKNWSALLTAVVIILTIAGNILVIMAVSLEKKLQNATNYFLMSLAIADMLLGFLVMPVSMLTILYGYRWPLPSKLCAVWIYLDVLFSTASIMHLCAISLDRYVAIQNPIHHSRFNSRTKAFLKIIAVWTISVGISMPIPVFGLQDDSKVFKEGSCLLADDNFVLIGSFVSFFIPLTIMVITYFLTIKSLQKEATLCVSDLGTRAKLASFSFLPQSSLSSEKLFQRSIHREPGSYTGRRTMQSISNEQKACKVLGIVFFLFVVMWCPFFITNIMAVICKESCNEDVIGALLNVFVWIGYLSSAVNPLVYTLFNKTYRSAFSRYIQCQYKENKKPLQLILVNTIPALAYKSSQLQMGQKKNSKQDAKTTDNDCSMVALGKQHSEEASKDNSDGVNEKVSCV
T3 sequence (P41595 whole entry, species assumed): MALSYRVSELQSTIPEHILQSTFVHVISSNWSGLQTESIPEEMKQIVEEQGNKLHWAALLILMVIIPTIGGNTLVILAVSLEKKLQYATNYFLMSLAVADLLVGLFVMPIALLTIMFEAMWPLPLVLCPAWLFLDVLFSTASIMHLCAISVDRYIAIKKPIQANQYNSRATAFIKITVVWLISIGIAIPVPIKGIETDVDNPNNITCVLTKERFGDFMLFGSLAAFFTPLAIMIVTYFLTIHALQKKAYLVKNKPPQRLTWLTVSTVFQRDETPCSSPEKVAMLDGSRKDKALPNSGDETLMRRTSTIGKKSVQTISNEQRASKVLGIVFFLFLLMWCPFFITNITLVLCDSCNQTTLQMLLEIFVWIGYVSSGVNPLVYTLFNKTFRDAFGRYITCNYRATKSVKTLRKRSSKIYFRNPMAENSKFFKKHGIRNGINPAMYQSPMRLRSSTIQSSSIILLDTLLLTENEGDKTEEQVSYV

As for `CN(C)CCc1c[nH]c2ccc(F)cc12` [Compound 5-F-DMT, reference compound], in data set [1] (mouse), the exposure AUC(0-t) amounted to 247 ng·h/mL and the highest level (Cmax) was 363 ng/mL. In data set [1], the Tmax is 15 min and the t1/2 came to 16.2 min. At 5-HT2A [2], this compound came in with a Ki of 181 nM. Moreover, on 5-HT2C receptor, the EC50 was 4.94 nM and the “5-HT2C % Act @ Max Dose” value came out at 93.9%. Moreover, on 5-HT2A [3], the response was half-maximal at 6.94 nM (EC50) and the “5-HT2A % Act @ Max Dose” value is on record as 94.7%. At 5-HT2B, the half-maximal effective concentration (EC50) is 9.71 nM and the “5-HT2B % Act @ Max Dose” value amounted to 17.6%.

In the case of `CCNCCc1c[nH]c2ccc(F)c(O)c12` [Compound 28, 3-(2-(ethylamino)ethyl)-5-fluoro-1H-indol-4-ol], the Ki at 5-HT2A [2] was determined as 319 nM. Moreover, on 5-HT2C receptor, the 50% effective concentration (EC50) was determined as 69.7 nM and the “5-HT2C % Act @ Max Dose” value turned out to be 99.03%. On 5-HT2A [3], the EC50 was 10.5 nM and the “5-HT2A % Act @ Max Dose” value turned out to be 92.60%. Besides, at 5-HT2B, the midpoint of the response, the EC50, lay at 38.6 nM and the “5-HT2B % Act @ Max Dose” value is listed as 19.83%.

With `CC(C)NCCc1c[nH]c2ccc(F)c(O)c12` [Compound 35, 5-fluoro-3-(2-(isopropylamino)ethyl)-1H-indol-4-ol], the Ki on 5-HT2A [2] turned out to be 446 nM. Besides, on 5-HT2C receptor, the EC50 is 324 nM and the “5-HT2C % Act @ Max Dose” value was 74.81%. At 5-HT2A [3], a half-maximal response (EC50) required 45.7 nM and the “5-HT2A % Act @ Max Dose” value was 94.57%. Besides, on 5-HT2B, the EC50 turned out to be 95.9 nM and the “5-HT2B % Act @ Max Dose” value is listed as 27.19%.
